Data: article PMC2074348, “Preclinical in vivo efficacy of two 9-dihydrotaxane analogues against human and murine tumours” (British Journal of Cancer, 1996)
≈ marks a conversion by molar mass, not a printed value. Where two headings read alike, the source gives them in different places.

How the values were obtained:
[1] = Pharmacokinetics following i.p. dosing in mice; settings: for t1/2 / Cmax / Tmax / AUC / AUC value (rounded) / Cmax (rounded): 20 mg kg-1 i.p.; for t1/2 / Cmax / Tmax / AUC: male CD-1 mice; for t1/2 / AUC / AUC value (rounded) / Cmax (rounded): plasma; for Cmax / Tmax: plasma (Table VI); for AUC: 0-12 h, trapezoidal (Table VI); for AUC value (rounded) / Cmax (rounded): mice; for Serum concentrations compared with paclitaxel: at equal dosages
A549 = assay: In vitro tumour cell cytotoxicity, colorimetric MTT assay, 72 h; assay type: cell-based, human; settings: 72 h exposure
B16F10 = assay: as above; assay type: cell-based, murine; settings: 72 h exposure
HT-29 = assay: as above; assay type: cell-based, human; settings: 72 h exposure
[2] = tested on: human MX-1 xenograft solid tumour; settings: for Cure rate / Delay in tumour growth compared with untreated controls: once daily on days 1-5 after inoculation
[3] = tested on: A549, HT-29, B16F10 and P388 tumour cells; assay: In vitro cytotoxicity across the four tumour cell lines, compared with paclitaxel; assay type: cell-based; settings: human and murine tumour cells
[4] = tested on: murine B16F10 melanoma ascites tumour; assay: In vivo efficacy vs i.p. B16F10 melanoma ascites tumour; settings: for Cure rate at optimal non-toxic dose / Optimal increase in life span (ILS): at non-toxic doses; for %ILS (group mean increase in lifespan) / MST (mean survival time ± s.d.) / Per cent cures (mice alive 60 days after inoculation) / Per cent toxicity (mice with premature death): q.d., i.p., days 1-5 after inoculation, BDF1 mice; for Efficacy against murine B16 ascites tumour compared with paclitaxel: mouse, in vivo
murine M109 solid tumour = assay: In vivo efficacy vs subcutaneous M109 solid tumour; settings: for Days (1.0 g): days to reach mean tumour mass = 1.0 g ± s.d. / Delay (1.0 g): delay to reach mean tumour mass = 1.0 g, compared with untreated / Per cent cures (mice with no palpable tumours, day 60) / Per cent toxicity / TWI (per cent tumour weight inhibition when untreated control mean = 1.0 g): q.d., i.p., days 1, 5, 9 after inoculation, s.c. tumour, BDF1 mice; for Optimal dose: i.p. every fourth day for three total injections (days 1, 5, 9 after inoculation); for Delay in solid tumour growth to 1 g: paclitaxel at a non-toxic dose
P388 = assay: In vitro tumour cell cytotoxicity, colorimetric MTT assay, 72 h; assay type: cell-based, murine; settings: 72 h exposure
[5] = tested on: BDF mice bearing B16F10 ascites tumours; settings: […]
[6] = dose 12.5 mg kg-1 per day, q.d., i.p., days 1-5 after inoculation, s.c. xenograft, nude mice
[7] = dose 25 mg kg-1 per day, q.d., i.p., days 1-5 after inoculation, s.c. xenograft, nude mice
[8] = dose 50 mg kg-1 per day, q.d., i.p., days 1-5 after inoculation, s.c. xenograft, nude mice
[9] = dose 100 mg kg-1 per day, q.d., i.p., days 1-5 after inoculation, s.c. xenograft, nude mice
[10] = i.p. once daily for 5 consecutive days

## CC(=O)O[C@@H]1C2=C(C)[C@@H](OC(=O)[C@H](O)[C@@H](NC(=O)c3ccccc3)c3ccccc3)C[C@@](O)([C@@H](OC(=O)c3ccccc3)[C@@H]3[C@]4(OC(C)=O)CO[C@@H]4C[C@H](O)[C@@]3(C)[C@H]1O)C2(C)C [Compound A-85576, 9-dihydrotaxol]
[1]
  t1/2: 1.9 h
  Cmax: 40.32 ig ml-1
  Tmax: 0.58 h
  AUC: 75.62 ig per h ml-1
  AUC value (rounded): over 75 jg h-1 ml-1
  Cmax (rounded): 40 jg ml-1
  Serum concentrations compared with paclitaxel: greater than paclitaxel
A549
  IC50: 0.019 µg/mL (≈ 0.0222 µM)
B16F10
  IC50: 0.025 µg/mL (≈ 0.0292 µM)
HT-29
  IC50: 0.008 µg/mL (≈ 0.00935 µM)
[2]; [6]
  Delay (1.0 g) (footnote: delay to reach mean tumour mass = 0.5 g, compared with untreated): 1.6 days
  Per cent cures (mice with no palpable tumours, day 60): 0%
  Per cent toxicity: 0%
  TWI (per cent tumour weight inhibition when untreated control mean = 0.5 g): 31%
[2]; [7]
  Delay (1.0 g) (footnote: delay to reach mean tumour mass = 0.5 g, compared with untreated): 5.9 days
  Per cent cures (mice with no palpable tumours, day 60): 0%
  Per cent toxicity: 0%
  TWI (per cent tumour weight inhibition when untreated control mean = 0.5 g): 65%
[2]; [8]
  Delay (1.0 g) (footnote: delay to reach mean tumour mass = 0.5 g, compared with untreated): 12.4 days
  Per cent toxicity: 0%
  TWI (per cent tumour weight inhibition when untreated control mean = 0.5 g): 94%
[2]; [9]
  Delay (1.0 g) (footnote: delay to reach mean tumour mass = 0.5 g, compared with untreated): 21.1 days
  Per cent cures (mice with no palpable tumours, day 60): 60%
  Per cent toxicity: 0%
  TWI (per cent tumour weight inhibition when untreated control mean = 0.5 g): 98%
[2]
  Cure rate: 60%
  Delay in tumour growth compared with untreated controls: 21 days
[3]
  In vitro potency compared with paclitaxel: generally less than that of paclitaxel
[4]; [10]
  Cure rate at optimal non-toxic dose: 0%
  Optimal increase in life span (ILS): 39%
  Optimal dose: 50 mg/kg/day
[4]; dose 25 mg kg-1 per day
  %ILS (group mean increase in lifespan): 21%
  MST (mean survival time ± s.d.): 23.9 ± 4.3 days
  Per cent cures (mice alive 60 days after inoculation): 0%
  Per cent toxicity (mice with premature death): 0%
[4]; dose 50 mg kg-1 per day
  %ILS (group mean increase in lifespan): 39%
  Per cent cures (mice alive 60 days after inoculation): 0%
  Per cent toxicity (mice with premature death): 0%
[4]; dose 100 mg kg-1 per day
  %ILS (group mean increase in lifespan): 46%
  Per cent cures (mice alive 60 days after inoculation): 0%
  Per cent toxicity (mice with premature death): 20%
[4]
  Efficacy against murine B16 ascites tumour compared with paclitaxel: less effective
Murine M109 solid tumour; dose 25 mg kg-1 per day
  Days (1.0 g): days to reach mean tumour mass = 1.0 g ± s.d.: 13.6+2.3 days
  Delay (1.0 g): delay to reach mean tumour mass = 1.0 g, compared with untreated: 1.6 days
  Per cent cures (mice with no palpable tumours, day 60): 0%
  Per cent toxicity: 0%
  TWI (per cent tumour weight inhibition when untreated control mean = 1.0 g): 34%
Murine M109 solid tumour; dose 50 mg kg-1 per day
  Days (1.0 g): days to reach mean tumour mass = 1.0 g ± s.d.: 14.1+3.2 days
  Delay (1.0 g): delay to reach mean tumour mass = 1.0 g, compared with untreated: 2.1 days
  Per cent cures (mice with no palpable tumours, day 60): 0%
  Per cent toxicity: 0%
  TWI (per cent tumour weight inhibition when untreated control mean = 1.0 g): 46%
Murine M109 solid tumour; dose 100 mg kg-1 per day
  Delay (1.0 g): delay to reach mean tumour mass = 1.0 g, compared with untreated: 10.5 days
  Per cent cures (mice with no palpable tumours, day 60): 0%
  Per cent toxicity: 0%
  TWI (per cent tumour weight inhibition when untreated control mean = 1.0 g): 90%
Murine M109 solid tumour
  Optimal dose: 100 mg kg-1 injection
  Delay in solid tumour growth to 1 g: 10.5 days
P388
  IC50: 0.053 µg/mL (≈ 0.0619 µM)

## CC(=O)OC12COC1CC(O)C1(C)C(O)C(O)C3=C(C)C(OC(=O)C(O)C(NC(=O)c4ccccc4)c4ccccc4)CC(O)(C(OC(=O)c4ccccc4)C21)C3(C)C (stereo not drawn) [Compound A-86415, 10-deacetyl-9-dihydrotaxol]
[1]
  t1/2: 2.8 h
  Cmax: 11.19 ig ml-1
  Tmax: 1.40 h
  AUC: 29.81 ig per h ml-1
  AUC value (rounded): 30 jg h-1 ml-1
  Cmax (rounded): 11 jg ml-1
  Serum concentrations compared with paclitaxel: less than paclitaxel
A549
  IC50: 0.011 µg/mL (≈ 0.0135 µM)
B16F10
  IC50: 0.039 µg/mL (≈ 0.0479 µM)
HT-29
  IC50: 0.0019 µg/mL (≈ 0.00233 µM)
[5]
  MTD (q.d. days 1-5): greater than 100 mg kg-1 per day
[2]; [6]
  Delay (1.0 g) (footnote: delay to reach mean tumour mass = 0.5 g, compared with untreated): 0 days
  Per cent cures (mice with no palpable tumours, day 60): 20%
  Per cent toxicity: 0%
  TWI (per cent tumour weight inhibition when untreated control mean = 0.5 g): 27%
[2]; [7]
  Days to 1.0 g (footnote: days to reach mean tumour mass = 0.5 g ± s.d.): 33.3 + 7.6 days
  Delay (1.0 g) (footnote: delay to reach mean tumour mass = 0.5 g, compared with untreated): 5.4 days
  Per cent cures (mice with no palpable tumours, day 60): 10%
  Per cent toxicity: 0%
  TWI (per cent tumour weight inhibition when untreated control mean = 0.5 g): 73%
[2]; [8]
  Delay (1.0 g) (footnote: delay to reach mean tumour mass = 0.5 g, compared with untreated): 14.7 days
  Per cent cures (mice with no palpable tumours, day 60): 30%
  Per cent toxicity: 0%
  TWI (per cent tumour weight inhibition when untreated control mean = 0.5 g): 99%
[2]; [9]
  Delay (1.0 g) (footnote: delay to reach mean tumour mass = 0.5 g, compared with untreated): 33.1 days
  Per cent cures (mice with no palpable tumours, day 60): 70%
  Per cent toxicity: 0%
  TWI (per cent tumour weight inhibition when untreated control mean = 0.5 g): 100%
[2]
  Cure rate: 70%
  Delay in tumour growth compared with untreated controls: 33 days
[3]
  In vitro potency compared with paclitaxel: generally less than that of paclitaxel
[4]; [10]
  Cure rate at optimal non-toxic dose: 10%
  Optimal increase in life span (ILS): 83%
[4]; dose 25 mg kg-1 per day
  %ILS (group mean increase in lifespan): 52%
  Per cent cures (mice alive 60 days after inoculation): 0%
  Per cent toxicity (mice with premature death): 0%
[4]; dose 50 mg kg-1 per day
  %ILS (group mean increase in lifespan): 83%
  MST (mean survival time ± s.d.): 36.1 ± 4.5 days
  Per cent cures (mice alive 60 days after inoculation): 10%
  Per cent toxicity (mice with premature death): 0%
[4]; dose 100 mg kg-1 per day
  %ILS (group mean increase in lifespan): 77%
  Per cent cures (mice alive 60 days after inoculation): 0%
  Per cent toxicity (mice with premature death): 0%
[4]
  Efficacy against murine B16 ascites tumour compared with paclitaxel: as effective as paclitaxel
Murine M109 solid tumour; dose 25 mg kg-1 per day
  Days (1.0 g): days to reach mean tumour mass = 1.0 g ± s.d.: 12.0+0 days
  Delay (1.0 g): delay to reach mean tumour mass = 1.0 g, compared with untreated: 0 days
  Per cent cures (mice with no palpable tumours, day 60): 0%
  Per cent toxicity: 0%
  TWI (per cent tumour weight inhibition when untreated control mean = 1.0 g): 10%
Murine M109 solid tumour; dose 50 mg kg-1 per day
  Days (1.0 g): days to reach mean tumour mass = 1.0 g ± s.d.: 12.0+0 days
  Delay (1.0 g): delay to reach mean tumour mass = 1.0 g, compared with untreated: 0 days
  Per cent cures (mice with no palpable tumours, day 60): 0%
  Per cent toxicity: 0%
  TWI (per cent tumour weight inhibition when untreated control mean = 1.0 g): 19%
Murine M109 solid tumour; dose 100 mg kg-1 per day
  Delay (1.0 g): delay to reach mean tumour mass = 1.0 g, compared with untreated: 5.1 days
  Per cent cures (mice with no palpable tumours, day 60): 0%
  Per cent toxicity: 0%
  TWI (per cent tumour weight inhibition when untreated control mean = 1.0 g): 79%
Murine M109 solid tumour
  Optimal dose: 100 mg kg-1 injection
  Delay in solid tumour growth to 1 g: 5.1 days
P388
  IC50: 0.014 µg/mL (≈ 0.0172 µM)
